The numbers were not newly measured in patent publication US11583521B2, “Long-acting injection dosage form of beta 3 adrenoreceptor agonists” (Jubilant Pharma Holdings Inc., priority 2020, dated 2023), which cites them from elsewhere.

The conditions of data set [1]: presence of food in the GI tract.
For data set [2] the following is noted: neutral to acidic pH.

Consider `Nc1nc(CC(=O)Nc2ccc(CCNC[C@H](O)c3ccccc3)cc2)cs1` [Mirabegron, (R)-2-(2-aminothiazol-4-yl)-4′-{2-[(2-hydroxy-2 phenylethyl)amino]ethyl}acetanilide], for which, in data set [1], the “bioavailability, effect of food” value is given as “affected by the presence of food in the GI (Gastro-Intestinal) tract”. For the same compound, the solubility in water entry in data set [2] is listed as “soluble in water between neutral to acidic pH”.
